Data reported in US20110045101A1, “FUNGICIDAL SUBSTITUTED AZOLES” (E.I. Du Pont De Nemours and Company, priority 2009, published 2011).
Marks after values point to notes of the source that are not given here.

What was measured:
Assay type in all cases: in vivo
Settings in all cases: 100 = 100% disease control
Septoria tritici = test: Test G: wheat leaf blotch on wheat seedlings, sprayed the day before inoculation, visual disease rating
Outline: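 Visual disease ratings taken 19 days after transfer to a 20° C growth chamber, following 48 h in saturated atmosphere at 24° C. Seedlings had been sprayed to run-off one day before spore inoculation. Dose 200 ppm, or 40 ppm where starred.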

Botrytis cinerea = test: Test C: tomato Botrytis on tomato seedlings, sprayed the day before inoculation, visual disease rating
Outline: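 Rate: 200 ppm sprayed to run-off, corresponding to 500 g/ha; flagged values used 40 ppm. Vehicle was aqueous acetone (1:1) plus 250 ppm surfactant, compounds predissolved in acetone at 3% of volume. Plants were tomato seedlings.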

[1] = tested on: Erysiphe graminis f. sp. tritici; test: Test J: wheat powdery mildew on wheat seedlings, sprayed the day before inoculation, visual disease rating
Outline: (§1)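 Plants received a run-off spray at 200 ppm (equivalent to 500 g/ha) or, for starred values, 40 ppm. Formulation used acetone at 3% of volume in a 50/50 acetone/water mix carrying 250 ppm Trem® 014.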

[2] = tested on: Puccinia recondita f. sp. tritici; test: Test H: wheat leaf rust, test suspension sprayed after inoculation of wheat seedlings, visual disease rating
Outline: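 Wheat seedlings inoculated with P. recondita spores, held 24 h saturated at 20 °C, then 2 days in growth chamber at 20 °C; compound suspension (acetone/water with Trem 014) sprayed to run-off afterwards. Rated visually; 200 ppm (≈500 g/ha) unless marked *, which denotes 40 ppm.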

[3] = tested on: Puccinia recondita f. sp. tritici; test: Test I: wheat leaf rust on wheat seedlings, sprayed the day before inoculation, visual disease rating
Outline: as §1

Septoria nodorum = test: Test F: wheat glume blotch on wheat seedlings, sprayed the day before inoculation, visual disease rating
Outline: as §1

Alternaria solani = test: Test D: tomato early blight, sprayed the day before inoculation, visual disease rating
Outline: as §1

[4] = 200 ppm, 0 = no control relative to controls
[5] = 40 ppm (marked *), 0 = no control

Row | SMILES | Test G disease control rating (Septoria tritici; [4]) [%] | Test C disease control rating (Botrytis cinerea; [4]) [%] | Test J disease control rating [1, 4] [%] | Test H disease control rating [2, 4] [%] | Test I disease control rating [3, 4] [%] | Test F disease control rating (Septoria nodorum; [4]) [%] | Test D disease control rating (Alternaria solani; [4]) [%] | also measured
1 | Fc1cccc(-n2c(Cl)nc(Cl)c2-c2c(F)ccc(F)c2F)c1 [compound 366] | 91 | 100 | 97 | 41 | 99 | 64 | 100 | 
2 | CCc1cccc(-n2c(C)nc(Cl)c2-c2c(F)ccc(OC)c2F)c1 [compound 418] | 100 | 100 | 100 | 0 | 97 | 99 | 100 | 
3 | COc1ccc(F)c(-c2c(Cl)nc(C)n2-c2ccc(Cl)c(C)c2)c1F [compound 425] | 100 | 100 | 100 | 0 | 96 | 100 | 100 | 
4 | COc1nc(Cl)ccc1-n1c(Cl)nc(Cl)c1-c1c(F)cccc1F [compound 619] | 96 | 99 | 99 | 51 | 98 | 0 | 53 | 
5 | Cc1nc(C)n(-c2ccc(Cl)c(F)c2)c1-c1c(F)ccc(F)c1F [compound 415] |  |  |  |  |  |  |  | Test G disease control rating (Septoria tritici; [5]): 99* %; Test C disease control rating (Botrytis cinerea; [5]): 100* %; Test J disease control rating [1, 5]: 98* %; Test H disease control rating [2, 5]: 0* %; Test I disease control rating [3, 5]: 94* %; Test F disease control rating (Septoria nodorum; [5]): 0* %; Test D disease control rating (Alternaria solani; [5]): 100* %
6 | Cc1nc(Cl)c(-c2c(F)cccc2F)n1-c1ccc2ncccc2c1 [compound 468] |  |  |  |  |  |  |  | Test G disease control rating (Septoria tritici; 40 ppm (marked *)): 96* %; Test C disease control rating (Botrytis cinerea; 40 ppm (marked *)): 99* %; Test J disease control rating ([1]; 40 ppm (marked *)): 58* %; Test H disease control rating ([2]; 40 ppm (marked *)): 0* %; Test I disease control rating ([3]; 40 ppm (marked *)): 91* %; Test F disease control rating (Septoria nodorum; 40 ppm (marked *)): 0* %; Test D disease control rating (Alternaria solani; 40 ppm (marked *)): 99* %
7 | Cc1nc(Cl)n(-c2ccc(Cl)nc2)c1-c1c(F)ccc(C#N)c1F [compound 716] | 100 | 100 | 99 | 100 | 99 | 95 | 100 | 
8 | COc1cc(F)c(-c2c(Cl)nc(CO)n2-c2ccc(F)cc2)c(F)c1 [Compound 298, 4-chloro-5-(2,6-difluoro-4-methoxyphenyl)-1-(4-fluorophenyl)-1H-imidazole-2-methanol] |  |  |  |  |  |  |  | pest or weed control at 200 ppm (Septoria tritici; Zymoseptoria tritici, 504 h, 200 ppm, 0 = no control relative to controls): 96%; pest or weed control at 200 ppm (Botrytis cinerea; Botrytis cinerea, 120 h, 200 ppm, 0 = no control relative to controls): 100%; pest or weed control at 200 ppm ([1]; Blumeria graminis, 168 h, 200 ppm, 0 = no control relative to controls): 0%; pest or weed control at 200 ppm ([2]; Puccinia recondita, 96 h, 200 ppm, 0 = no control relative to controls): 0%; pest or weed control at 200 ppm ([3]; Puccinia recondita, 168 h, 200 ppm, 0 = no control relative to controls): 98%; pest or weed control at 200 ppm (Septoria nodorum; Parastagonospora nodorum, 264 h, 200 ppm, 0 = no control relative to controls): 0%; pest or weed control at 200 ppm (Alternaria solani; Alternaria solani, 168 h, 200 ppm, 0 = no control relative to controls): 100%
9 | COc1cc(F)c(-c2c(Cl)nc(Cl)n2-c2ccc(C)c(C#N)c2)c(F)c1 [compound 572] |  |  |  |  |  |  |  | Test G disease control rating (Septoria tritici; 40 ppm (marked *)): 95* %; Test C disease control rating (Botrytis cinerea; 40 ppm (marked *)): 100* %; Test J disease control rating ([1]; 40 ppm (marked *)): 71* %; Test H disease control rating ([2]; 40 ppm (marked *)): 0* %; Test I disease control rating ([3]; 40 ppm (marked *)): 99* %; Test F disease control rating (Septoria nodorum; 40 ppm (marked *)): 92* %; Test D disease control rating (Alternaria solani; 40 ppm (marked *)): 99* %
10 | Clc1ccc(-c2c(Cl)ncn2Cc2cccc(Cl)c2)cc1 [compound 272] |  |  |  |  |  |  |  | Test G disease control rating (Septoria tritici; 200 ppm, 0 = no control): 91%; Test C disease control rating (Botrytis cinerea; 200 ppm, 0 = no control): 64%; Test J disease control rating ([1]; 200 ppm, 0 = no control): 0%; Test H disease control rating ([2]; 200 ppm, 0 = no control): 17%; Test I disease control rating ([3]; 200 ppm, 0 = no control): 55%; Test F disease control rating (Septoria nodorum; 200 ppm, 0 = no control): 0%; Test D disease control rating (Alternaria solani; 200 ppm, 0 = no control): 0%
11 | Cc1nc(Cl)c(-c2c(F)cccc2F)n1-c1ccc2c(c1)OCCO2 [compound 470] |  |  |  |  |  |  |  | Test G disease control rating (Septoria tritici; 40 ppm (marked *)): 92* %; Test C disease control rating (Botrytis cinerea; 40 ppm (marked *)): 99* %; Test J disease control rating ([1]; 40 ppm (marked *)): 87* %; Test H disease control rating ([2]; 40 ppm (marked *)): 0* %; Test I disease control rating ([3]; 40 ppm (marked *)): 99* %; Test F disease control rating (Septoria nodorum; 40 ppm (marked *)): 0* %; Test D disease control rating (Alternaria solani; 40 ppm (marked *)): 99* %
12 | COc1cc(F)c(-c2c(Cl)nc(Cl)n2-c2cncc(Br)c2)c(F)c1 [compound 678] | 99 | 100 | 100 | 100 | 100 | 100 | 100 | 
13 | Cc1nc(Cl)c(-c2ccc(Cl)cc2)n1-c1ccc(F)cc1Cl [compound 422] | 100 | 100 | 100 | 0 | 99 | 60 | 100 | 
14 | N#Cc1ccc(F)c(-c2c(Cl)nc(Cl)n2-c2ccc(Cl)cc2)c1F [compound 407] | 96 | 100 | 98 | 0 | 97 | 92 | 0 | 
15 | COC(=O)c1ccc(-n2cnc(N(C)C)c2-c2c(F)cccc2F)cc1 [compound 633] |  |  |  |  |  |  |  | Test G disease control rating (Septoria tritici; 40 ppm (marked *)): 0* %; Test C disease control rating (Botrytis cinerea; 40 ppm (marked *)): 0* %; Test J disease control rating ([1]; 40 ppm (marked *)): 0* %; Test H disease control rating ([2]; 40 ppm (marked *)): 0* %; Test I disease control rating ([3]; 40 ppm (marked *)): 44* %; Test F disease control rating (Septoria nodorum; 40 ppm (marked *)): 0* %; Test D disease control rating (Alternaria solani; 40 ppm (marked *)): 0* %
16 | Fc1cc(-n2c(Cl)nc(Cl)c2-c2ccnc(Br)c2)ccc1Cl [compound 485] | 95 | 96 | 98 | 0 | 98 | 0 | 88 | 
17 | COc1cc(F)c(-c2c(Br)nc(Br)n2-c2ccc(F)cc2)c(F)c1 [compound 523] |  |  |  |  |  |  |  | Test G disease control rating (Septoria tritici; 40 ppm (marked *)): 98* %; Test C disease control rating (Botrytis cinerea; 40 ppm (marked *)): 100* %; Test J disease control rating ([1]; 40 ppm (marked *)): 97* %; Test H disease control rating ([2]; 40 ppm (marked *)): 0* %; Test I disease control rating ([3]; 40 ppm (marked *)): 99* %; Test F disease control rating (Septoria nodorum; 40 ppm (marked *)): 0* %; Test D disease control rating (Alternaria solani; 40 ppm (marked *)): 100* %
18 | COc1ccc(F)c(-c2c(Cl)nc(Br)n2-c2ccc(Br)cc2)c1F [compound 563] | 100 | 100 | 100 | 0 | 94 | 100 | 100 | 
19 | COc1cc(F)c(-c2c(Cl)nc(Cl)n2-c2ccc(C)cc2F)c(F)c1 [compound 653] |  |  |  |  |  |  |  | Test G disease control rating (Septoria tritici; 40 ppm (marked *)): 100* %; Test C disease control rating (Botrytis cinerea; 40 ppm (marked *)): 99* %; Test J disease control rating ([1]; 40 ppm (marked *)): 99* %; Test H disease control rating ([2]; 40 ppm (marked *)): 99* %; Test I disease control rating ([3]; 40 ppm (marked *)): 100* %; Test F disease control rating (Septoria nodorum; 40 ppm (marked *)): 78* %; Test D disease control rating (Alternaria solani; 40 ppm (marked *)): 99* %
20 | CNc1nc(Cl)c(-c2c(F)cc(OC)cc2F)n1-c1ccc(Cl)cc1 [compound 692] | 99 | 100 | 79 | 8 | 0 | 0 | 70 | 
21 | Cc1ncn(-c2ccc(Cl)c(F)c2)c1-c1ccnc(Br)c1 [compound 345] | 27 | 64 | 0 | 0 | 0 | 0 | 0 | 
22 | COc1ccc(F)c(-c2c(Cl)ncn2-c2ccc(C#N)cc2)c1F [compound 527] | 95 | 100 | 88 | 37 | 91 | 0 | 99 | 
23 | Cc1nc(Cl)n(-c2ccc(Cl)c(F)c2)c1-c1sc(Cl)nc1Cl [compound 381] | 78 | 94 | 0 | 0 | 0 | 0 | 0 | 
